Results reported in PMC6740044 (ACS Omega, 2019).
Blank lines part the entries; values can stand above or below the compound they belong to. Bridge positions count the residues as written; N and C are the ends. Peptide text beside a SMILES is read from it.

How the values were obtained:
[1] = target: Herceptin (human IgG1) (human); test: SPR
[2] = target: Herceptin (human IgG1) (human); test: ITC
Herceptin (human IgG1) = Herceptin (human IgG1) (Homo sapiens, UniProt P01857); test: Isothermal titration calorimetry; conditions: ITC, 25 °C, single-site binding model, measured three times
Chain of Herceptin (human IgG1) (P01857 104-328): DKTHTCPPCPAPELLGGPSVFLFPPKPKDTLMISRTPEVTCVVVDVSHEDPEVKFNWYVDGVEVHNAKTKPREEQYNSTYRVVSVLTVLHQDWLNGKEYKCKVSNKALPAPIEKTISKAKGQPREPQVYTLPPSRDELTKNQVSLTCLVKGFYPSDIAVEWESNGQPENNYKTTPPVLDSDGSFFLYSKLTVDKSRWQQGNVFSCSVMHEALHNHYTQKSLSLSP

Compound: 15-Lys8Phe (peptide)
Kd [1]: 40 nM

Compound: 15-Lys8Tle (peptide)
Kd [2]: 200 nM

ΔG (Herceptin (human IgG1)): –9.1 ± 0.0 kcal/mol
ΔH (Herceptin (human IgG1)): –13 ± 0 kcal/mol
–TΔS (Herceptin (human IgG1)): 3.5 ± 0.1 kcal/mol
Compound: CC(=O)N[C@@H](CC(=O)O)C(=O)N[C@H]1CSSC[C@@H](C(=O)N[C@H](C(=O)N[C@@H](Cc2ccccc2)C(=O)N[C@@H](Cc2c[nH]cn2)C(N)=O)[C@@H](C)O)NC(=O)[C@H](Cc2c[nH]c3ccccc23)NC(=O)[C@H](C(C)C)NC(=O)[C@H](CC(C)C)NC(=O)[C@H](CCC(=O)O)NC(=O)CNC(=O)[C@H](CCCCN)NC(=O)[C@H](Cc2c[nH]cn2)NC(=O)[C@H](Cc2ccc(O)cc2)NC(=O)[C@H](C)NC1=O [15-IgBP] (Ac-DCAYHKGELVWCTFH-NH2; disulfide 2-12)
